Assay results published in patent US7186703B2, “Derivatives of branched-chain lipophilic molecules and uses thereof” (D-Pharm Ltd., priority 2000, dated 2007).

Test system: C6 glioma tumor
Test: Anti-tumor effect in C6 glioma-bearing rats, tumor volume and appearance (Example 28)
Format: in vivo, Sprague Dawley (SD) rats
Method: The anti-tumor effect of DP-BFA was evaluated by monitoring tumor volume and appearance in a model system of C6 glioma-bearing rats. Sprague Dawley (SD) rats were inoculated with 2.5×10^5 C6 glioma cells in 5 μl PBS as follows. Rats were mounted into a stereotactic head holder in a flat-skull position. After reflections of the periosteum, a burr hole was preformed with a 1 mm drill in the following coordinates: bregma—1.0, 3.50 mm lateral from the midline on the left side, and at a depth of 3.50 mm. The cell suspension was manually injected at a depth of 3.50 mm using a 10 μl Hamilton syringe.
The pterigo-palatina artery was legated, and the common carotid artery was clamped at the time of infusion.
Five days after the inoculation of the C6 tumor cells, the rats were anesthetized with Ketamin/xylazin (1:1) 0.1 ml/100 grams body weight, perfused with saline and fixed with 4% Formaldehyde solution. Brains were removed and cryoprotected in a sucrose solution for 48 h. The brains were then sliced in coronal section, stained with Haematoxylin-Eosine and underwent pathology evaluation.

**Q.** For “2-(4′-Hexadecanoyloxy)ethoxyethyl phosphate [3,12-DEG-PO4]”, which “anti-tumor effect, invasiveness and rate of growth (in words)” value (rat, in vivo) is on record?
**A.** significant anti-tumor effect

**Q.** And the Tumor volume (single dose 5 to 20 μM, 72 h post inoculation, vehicle 8.1±2.2)?
**A.** 1.6±0.2 mm^3
